Measurements: paper PMC11685430 (Nature Communications, 2024)

Tests used:
[1] = system: mice, formalin-induced inflammatory pain; assay: Formalin-induced acute inflammatory pain; format: in vivo, mouse; conditions: i.t., JH-ENT-01 1, 10, 100 nmol, dilazep 100 nmol
mice [2] = assay: Electrocardiogram; format: in vivo, mouse
[3] = system: mice, CFA-induced inflammatory pain; assay: CFA-induced persistent inflammatory pain, von Frey test; format: in vivo, mouse; conditions: i.v., 10 mg/ml as printed; days 1, 3, 5 after CFA
mice [4] = assay: Rotarod test before and 60 min after i.t. delivery; format: in vivo, mouse; conditions: 60 min after i.t. 100 nmol
[5] = system: mice with STZ-induced diabetic neuropathy; assay: STZ-induced diabetic neuropathy, mechanical pain; format: in vivo, mouse
[6] = Plasma and tissue pharmacokinetics after subcutaneous administration; format: in vivo; conditions: male, CD-1, mouse, plasma, sc
[7] = system: mice with STZ-induced diabetic neuropathy; assay: Survival of STZ mice after repeated injections; format: in vivo, mouse
G154S hENT1 = target: T1, G154S hENT1 (Homo sapiens, UniProt Q99808, G154S); assay: [3H]-adenosine uptake in oocytes expressing G154S hENT1; format: cell-based; conditions: Fig 1g
T1 sequence (Q99808 1-456 G154S): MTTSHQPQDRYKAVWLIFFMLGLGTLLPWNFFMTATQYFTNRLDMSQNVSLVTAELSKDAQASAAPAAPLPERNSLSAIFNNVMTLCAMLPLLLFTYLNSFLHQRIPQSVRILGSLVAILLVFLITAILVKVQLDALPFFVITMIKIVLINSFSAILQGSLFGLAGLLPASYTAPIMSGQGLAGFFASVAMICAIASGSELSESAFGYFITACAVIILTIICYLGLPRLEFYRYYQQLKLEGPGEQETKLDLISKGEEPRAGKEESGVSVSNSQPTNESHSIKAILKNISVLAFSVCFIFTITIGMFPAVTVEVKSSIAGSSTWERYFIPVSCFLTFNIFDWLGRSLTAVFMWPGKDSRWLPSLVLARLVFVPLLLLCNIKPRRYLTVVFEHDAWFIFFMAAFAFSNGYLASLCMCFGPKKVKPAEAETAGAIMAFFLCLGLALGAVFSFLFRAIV

[8] = system: adenosine receptor subtypes (A1R, A2AR, A2BR, A3R); format: in vivo, mouse; conditions: i.t. 10 nmol
A1R = assay: Reversal of JH-ENT-01 analgesia by A1R antagonist in STZ-treated mice; format: in vivo, mouse; conditions: i.t. 10 nmol, 30 min prior to JH-ENT-01 10 nmol
[9] = system: spinal dorsal horn outer lamina II (IIo) neurons; assay: Patch clamp recording of sEPSCs in spinal cord slices of naive mice; format: cell-based, mouse; conditions: DPCPX alone 1 μM

Row | Compound | formalin-induced 2nd phase pain [1] | formalin-induced phase 1 pain ([1]; both sexes) | effect on heart rates (mice [2]; i.p. 10 mg/kg and 30 mg/kg) | effect on heart rates (mice [2]; i.v. 30 mg/kg, first hour) | paw withdrawal frequency (PWF) [3] | paw withdrawal threshold (PWT) [3] | motor function in rotarod test (mice [4]) | paw withdrawal threshold (PWT) ([5]; i.t. 10 nmol) | paw withdrawal threshold (PWT) ([5]; i.v. 30 mg/kg on days 8, 10, 12 after STZ) | neuropathic pain in the STZ model ([5]; s.c. 3 x 30 mg/kg) | Cmax [6] | death / survival of mice ([7]; i.v. 30 mg/kg, 3 injections) | survival of mice ([7]; s.c. 3 x 30 mg/kg) | preferential inhibition of wild type hENT1 over G154S (G154S hENT1) | reversal of JH-ENT-01 analgesia [8] | effect on analgesic action of JH-ENT-01 (PWT) (A1R) | sEPSC frequency and amplitude [9]
1 | COc1cc(C(=O)OCCCN2CCCN(CCCOC(=O)c3cc(OC)c(OC)c(OC)c3)CC2)cc(OC)c1OC [dilazep] | significant inhibition of phase 2 pain only when data from both sexes were combined | not affected | no significant decrease | significant decrease | no effects | no effects | no significant changes in the falling latency | failed to elicit an increase in PWT | did not observe any analgesic effect | no effects | 409 ng/mL | 7 out of 16 | all mice survived | did not show any preference |  |  | 
2 | CCCn1c(=O)c2[nH]c(C3CCCC3)nc2n(CCC)c1=O [DPCPX] |  |  |  |  |  |  |  |  |  |  |  |  |  |  | reversal | prevented | no effects on sEPSC frequency and amplitude
